From article PMC4498246, “Synthesis, characterization, and pharmacological evaluation of novel azolo- and azinothiazinones containing 2,4-dihydroxyphenyl substituent as anticancer agents” (Monatshefte Fur Chemie, 2015)

Columns and labels:
Assay type in all cases: cell-based
[1] = tested on: normal human skin fibroblasts HSF; assay: LDH cytotoxicity assay, skin fibroblasts; details: 24 h; for Effect on death cells in the culture (protective properties, LDH): 10–100 μmol dm^−3
Method: Additionally, the influence of compounds on normal human skin fibroblast primary culture (HSF) was assessed. HSF cells were exposed to compounds (10–100 μmol dm^−3) for 24 h and the level of lactic dehydrogenase (LDH) released from the damaged cells was measured (LDH method). […] Only compound 2c in all tested concentrations and 2b in the concentration 100 μmol dm^−3 were highly toxic for skin fibroblasts. […] This may indicate protective properties of the compounds.
(§1) Human non-small cell lung cancer A549 (Cat. No. 86012804), human colon adenocarcinoma HT-29 (Cat. No. 91072201), rat glioma C6 (Cat. No. 92090409) cell lines were obtained from the PHE Culture Collections (Public Health England Culture Collections, Porton Down, Salisbury, UK). Primary culture of normal human skin fibroblasts (HSF) was obtained by the outgrowth technique from skin explants of young persons in our laboratory. The cells were kept in the following culture media purchased from Sigma (Sigma Chemicals, St. Louis, MO, USA): A549—3:1 mixture of DMEM and Nutrient mixture F-12 Ham; C6 and HSF—DMEM, HT-29—1:1 mixture of DMEM and Nutrient mixture F-12 Ham. All media were supplemented with 10 % FBS (Sigma), penicillin (100 U cm^−3, Sigma) and streptomycin (100 μg cm^−3, Sigma). The cultures were kept at 37 °C in a humidified atmosphere of 95 % air and 5 % CO2.
Skin fibroblasts HSF were plated on 96-well microplates at a density of 1 × 10^5 cells cm^−3. The following day, the culture medium was removed and the cells exposed to serial dilutions of compounds (10, 25, 50, and 100 μmol dm^−3) diluted in a fresh culture medium with a reduced amount of FBS (2 %). Cytotoxicity was detected after 24 h with the use In Vitro Toxicology Assay Kit, Lactic Dehydrogenase based (Sigma). The assay is based on the reduction of NAD by the action of lactic dehydrogenase (LDH) released from damaged cells. The resulting NADH is utilized in the stoichiometric conversion of a tetrazolium dye. The resulting coloured compound is measured spectrophotometrically. The test was carried out according to the kit procedure. The colour product was quantified spectrophotometrically at 450 nm wavelength using an Elx800 microplate reader.

[2] = tested on: human colon carcinoma HT-29; assay: MTT proliferation assay, HT-29; details: HT-29 cells, 96 h
Method: (§2) The anticancer effect of compounds was tested in non-small cell lung cancer A549, colon carcinoma HT-29, and glioma C6 cells. The cells were exposed to either culture medium as the control culture or the compounds in concentrations of 10, 25, 50, and 100 μmol dm^−3. […] Cisplatin was used as a reference drug.
as §1
(§3) Cancer cells were plated on 96-well microplates at a density of 1 × 10^4 (A549), 3 × 10^4 (HT-29), and 0.5 × 10^4 (C6) cells cm^−3. Next day, the culture medium was removed and the cells exposed to serial dilutions of compounds (10, 25, 50, and 100 μmol dm^−3) in a fresh medium. Cell proliferation was assessed after 96 h using the MTT method in which the yellow tetrazolium salt (MTT) is metabolized by viable cells to purple formazan crystals. The cancer cells were incubated for 3–4 h with MTT solution (5 mg cm^−3). Formazan crystals were solubilized overnight in the SDS buffer (10 % SDS in 0.01 mol dm^−3 HCl) and the product quantified spectrophotometrically by measuring absorbance at the 570 nm wavelength using a Elx800 microplate reader (BIO-TEK, Highland Park, Winooski, Vermont, USA).

[3] = tested on: human non-small cell lung cancer A549; assay: MTT proliferation assay, A549; details: A549 cells, 96 h
Method: as §2, §1, §3

rat glioma C6 cells = assay: MTT proliferation assay, glioma C6; details: 96 h
Method: as §2, §1, §3

| SMILES | Effect on death cells in the culture (protective properties, LDH) [1] | IC50 ([2]; Homo sapiens) | IC50 ([3]; Homo sapiens) | IC50 (rat glioma C6 cells; Rattus norvegicus) | further results |
| --- | --- | --- | --- | --- | --- |
| Cc1c(O)ccc(-c2nc3n[nH]cc3c(=O)s2)c1O [1a, 6-(2,4-Dihydroxy-3-methylphenyl)pyrazolo[3,4-d][1,3]thiazin-4(2H)-one] | induced a decrease of death cells in the culture | 102 µM | 9.2 µM | 17.2 µM | – |
| Cc1cc(-c2nc3n[nH]cc3c(=O)s2)c(O)cc1O [1b, 6-(2,4-Dihydroxy-5-methylphenyl)pyrazolo[3,4-d][1,3]thiazin-4(2H)-one] | – | 109 µM | – | 35.8 µM | – |
| CCc1cc(-c2nc3n[nH]cc3c(=O)s2)c(O)cc1O [1c, 6-(5-Ethyl-2,4-dihydroxyphenyl)pyrazolo[3,4-d][1,3]thiazin-4(2H)-one] | induced a decrease of death cells in the culture | 20.9 µM | 32.2 µM | 23.1 µM | – |
| COc1c(O)ccc(-c2nc3n[nH]cc3c(=O)s2)c1O [1e, 6-(2,4-Dihydroxy-3-methoxyphenyl)pyrazolo[3,4-d][1,3]thiazin-4(2H)-one] | – | – | – | 101 µM | – |
| CCCc1nn(C)c2c(=O)sc(-c3ccc(O)cc3O)nc12 [2a, 5-(2,4-Dihydroxyphenyl)-1-methyl-3-propylpyrazolo[4,3-d][1,3]thiazin-7(1H)-one] | – | – | 56.1 µM | 48.9 µM | – |
| CCCc1nn(C)c2c(=O)sc(-c3ccc(O)c(C)c3O)nc12 [2b, 5-(2,4-Dihydroxy-3-methylphenyl)-1-methyl-3-propylpyrazolo[4,3-d][1,3]thiazin-7(1H)-one] | – | – | – | – | Cytotoxicity (LDH release) ([1]; concentration 100 μmol dm^−3): highly toxic |
| CCCc1nn(C)c2c(=O)sc(-c3cc(C)c(O)cc3O)nc12 [2c, 5-(2,4-Dihydroxy-5-methylphenyl)-1-methyl-3-propylpyrazolo[4,3-d][1,3]thiazin-7(1H)-one] | – | 157 µM | – | 27.1 µM | Cytotoxicity (LDH release) ([1]; all tested concentrations (10–100 μmol dm^−3)): highly toxic |
| CCCc1nn(C)c2c(=O)sc(-c3cc(CC)c(O)cc3O)nc12 [2d, 5-(5-Ethyl-2,4-dihydroxyphenyl)-1-methyl-3-propylpyrazolo[4,3-d][1,3]thiazin-7(1H)-one] | – | – | 35 µM | 32.2 µM | – |
| CCCc1nn(C)c2c(=O)sc(-c3cc(Cl)c(O)cc3O)nc12 [2e, 5-(5-Chloro-2,4-dihydroxyphenyl)-1-methyl-3-propylpyrazolo[4,3-d][1,3]thiazin-7(1H)-one] | – | – | – | 31.8 µM | – |
| Cc1c(O)ccc(-c2nc3[nH]cnc3c(=O)s2)c1O [3a, 5-(2,4-Dihydroxy-3-methylphenyl)imidazo[4,5-d][1,3]thiazin-7(3H)-one] | induced a decrease of death cells in the culture | – | 48.8 µM | 33.1 µM | – |
| Cc1cc(-c2nc3[nH]cnc3c(=O)s2)c(O)cc1O [3b, 5-(2,4-Dihydroxy-5-methylphenyl)imidazo[4,5-d][1,3]thiazin-7(3H)-one] | induced a decrease of death cells in the culture | – | – | – | – |
| CCc1cc(-c2nc3[nH]cnc3c(=O)s2)c(O)cc1O [3c, 5-(5-Ethyl-2,4-dihydroxyphenyl)imidazo[4,5-d][1,3]thiazin-7(3H)-one] | induced a decrease of death cells in the culture | 75.4 µM | 49.8 µM | 8.2 µM | – |
| O=c1sc(-c2cc(Cl)c(O)cc2O)nc2[nH]cnc12 [3d, 5-(5-Chloro-2,4-dihydroxyphenyl)imidazo[4,5-d][1,3]thiazin-7(3H)-one] | – | – | – | 53.5 µM | – |
| Cc1cc(-c2nc3[nH]cnc3c(=O)s2)c(O)cc1O [4a, 5-(2,4-Dihydroxy-5-methylphenyl)imidazo[4,5-d][1,3]thiazin-7(1H)-one] | induced a decrease of death cells in the culture | – | – | – | – |
| CCc1cc(-c2nc3nc[nH]c3c(=O)s2)c(O)cc1O [4b, 5-(5-Ethyl-2,4-dihydroxyphenyl)imidazo[4,5-d][1,3]thiazine-7(1H)-one] | – | – | – | 89.7 µM | – |
| O=c1sc(-c2cc(Cl)c(O)cc2O)nc2nc[nH]c12 [4c, 5-(5-Chloro-2,4-dihydroxyphenyl)imidazo[4,5-d][1,3]thiazine-7(1H)-one] | – | 61.4 µM | 46.7 µM | 18.3 µM | – |
| N.N.[Cl][Pt][Cl] [cisplatin, reference compound] | – | – | – | – | IC50 [2]: 6 µM; IC50 [3]: 4.3 µM; IC50 (rat glioma C6 cells): 0.4 µM |
